Test systems include 786-0; BT-549; COLO 205; EKVX; HCC 2998; HOP-92; HT-29; KM12; LOX IMVI; M14; M19-MEL; MOLT-4; NCI-H226; NCI/ADR-RES; OVCAR-8; SF-268; SK-MEL-28; SK-MEL-2; T47D; U-251.
What all share (assay): NCI tumour cell line growth inhibition, 48 h

The structures appear in SMILES notation.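 Results reflect a 48-hour exposure of cells in 96-well plates to compound at five concentrations. At the GI50, growth is halved.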 The source made the active and inactive calls. Cut-off read from the data, not from the text of the source: active = GI50 up to about 1.1 µM and inactive = higher.

With `O=C1/C(=C/c2ccccc2)CN(C(=O)CCN2CCOCC2)C/C1=C\c1ccccc1`, the GI50 was 1.96 µM (inactive) in the assay on 786-0; 2.14 µM (inactive) in the assay on BT-549; 2.74 µM (inactive) in the assay with COLO 205; 13.6 µM (inactive) in the assay on EKVX; 1.87 µM (inactive) in the assay with HCC 2998; 9.79 µM (inactive) with HOP-92. In addition, the GI50 with HT-29 was 1.95 µM (inactive); with KM12 it was 1.6 µM (inactive); with LOX IMVI, 0.897 µM (active); in the assay on M14 it was 2.33 µM (inactive); in the assay with M19-MEL it was 2 µM (inactive); in the assay with MOLT-4 it was 2.58 µM (inactive). Also, the GI50 in the assay on NCI-H226 was 5.89 µM (inactive); with NCI/ADR-RES, 3.16 µM (inactive); in the assay on OVCAR-8, 2.99 µM (inactive); in the assay with SF-268 it was 2.87 µM (inactive); in the assay with SK-MEL-28, 1.86 µM (inactive); with SK-MEL-2, 2.55 µM (inactive). Also, the GI50 was 3.34 µM (inactive) in the assay with T47D and 1.79 µM (inactive) in the assay with U-251.

For `CCO/C=C/C(C)C1(C(=O)OCC)CCCCC1=O` (configuration not stated), the GI50 with 786-0 was 56.8 µM (inactive); in the assay with COLO 205 it was > 100 µM (inactive); with EKVX it was > 100 µM (inactive); with HCC 2998, > 100 µM (inactive); with HOP-92, > 100 µM (inactive); in the assay on HT-29, > 100 µM (inactive). For the same compound, the GI50 in the assay with KM12 was > 100 µM (inactive); in the assay on LOX IMVI, 45.9 µM (inactive); with M14, > 100 µM (inactive); in the assay on M19-MEL it was > 100 µM (inactive); in the assay on MOLT-4 it was > 100 µM (inactive); with NCI-H226 it was > 100 µM (inactive). Also, the GI50 with OVCAR-8, in the assay on SF-268, in the assay on SK-MEL-28, in the assay with SK-MEL-2 and in the assay on U-251 was > 100 µM (inactive) in each case.

For the compound `Oc1ccc2c3c1OC1C(=NN=C4CCC5(O)C6Cc7ccc(O)c8c7C5(CCN6CC5CC5)C4O8)CCC4(O)C(C2)N(CC2CC2)CCC314` (configuration not stated), the GI50 in the assay on 786-0 was 24.9 µM (inactive); with COLO 205, 19.4 µM (inactive); with EKVX, 32.4 µM (inactive); in the assay with HCC 2998 it was 21.5 µM (inactive); in the assay on HOP-92, 21.1 µM (inactive); in the assay on HT-29, 17.1 µM (inactive). The GI50 with KM12 is 19.8 µM (inactive); with LOX IMVI, 20 µM (inactive); in the assay on M14 it was 18.3 µM (inactive); with M19-MEL, 21.7 µM (inactive); in the assay with MOLT-4 it was 23.7 µM (inactive); in the assay with NCI-H226, > 100 µM (inactive). Also, the GI50 was 28.5 µM (inactive) with OVCAR-8; > 50.4 µM (inactive) in the assay on SF-268; 21.9 µM (inactive) in the assay with SK-MEL-28; 13.9 µM (inactive) in the assay with SK-MEL-2; 17.7 µM (inactive) in the assay with U-251.

Regarding `O=C1CCCC/C(=C/c2ccccc2)N1`, the GI50 in the assay on 786-0, in the assay with COLO 205, with EKVX, with HCC 2998, in the assay with HOP-92 and in the assay with HT-29 was > 100 µM (inactive) in each case. Besides, the GI50 in the assay with KM12, in the assay on LOX IMVI, with M14, in the assay with M19-MEL, with MOLT-4 and in the assay on NCI-H226 was > 100 µM (inactive) in each case. For the same compound, the GI50 in the assay on OVCAR-8, in the assay with SF-268, in the assay with SK-MEL-28, in the assay on SK-MEL-2 and in the assay with U-251 was > 100 µM (inactive) each time.

As for `CC(C)(C)C1CC[C@H]2c3c([nH]c4ccc(Br)cc34)[C@H]3C(=O)N(c4ccccc4)C(=O)[C@H]3[C@H]2C1` (some centres not stated), the GI50 in the assay on 786-0 was 6.67 µM (inactive); with COLO 205, 7.74 µM (inactive); in the assay on EKVX, 92.9 µM (inactive); in the assay with HCC 2998, > 100 µM (inactive); with HOP-92 it was 23.1 µM (inactive); with HT-29, 43 µM (inactive). The GI50 with KM12 was 17.6 µM (inactive); in the assay with LOX IMVI it was 19.1 µM (inactive); in the assay on M14, 22 µM (inactive); in the assay on M19-MEL, 19.8 µM (inactive); with MOLT-4 it was 15.6 µM (inactive); in the assay on NCI-H226, 35.2 µM (inactive). In addition, the GI50 in the assay with OVCAR-8 was 3.49 µM (inactive); in the assay with SF-268, 8.73 µM (inactive); in the assay on SK-MEL-28, 41.1 µM (inactive); with SK-MEL-2, 50.9 µM (inactive); in the assay on U-251, 10.4 µM (inactive).

For the compound `C=C(CN(C)C)C(=O)c1ccccc1[N+](=O)[O-]`, the GI50 in the assay with 786-0 was 12.2 µM (inactive); with BT-549 it was 16.3 µM (inactive); in the assay on COLO 205, 7.8 µM (inactive); in the assay with EKVX, > 43.5 µM (inactive); with HCC 2998, 29.9 µM (inactive); in the assay on HOP-92, 9.14 µM (inactive). The GI50 in the assay on HT-29 is 19.2 µM (inactive); with KM12, 31.1 µM (inactive); in the assay on LOX IMVI, 7.94 µM (inactive); in the assay on M14, 15.5 µM (inactive); in the assay with M19-MEL, 17.8 µM (inactive); in the assay on NCI-H226 it was 30.1 µM (inactive). The GI50 was 19.2 µM (inactive) in the assay with NCI/ADR-RES; 20.2 µM (inactive) in the assay with OVCAR-8; 27.2 µM (inactive) in the assay on SF-268; 17.6 µM (inactive) with SK-MEL-28; 18 µM (inactive) in the assay on SK-MEL-2; 3.83 µM (inactive) in the assay with T47D. Moreover, in the assay with U-251, the GI50 is 32.2 µM (inactive).
